Source: article PMC6899670 (The Febs Journal, 2019)
pKi: −log10 of the molar value. Where two headings read alike, the source gives them in different places.

Experiments:
[1] = molecular target: T1, BpDdl (Burkholderia pseudomallei D-alanine-D-alanine ligase) (Burkholderia pseudomallei, UniProt Q63QJ9); experiment: biochemical
T1 construct: gene ddl

[2] = molecular target: T1, BpDdl (Burkholderia pseudomallei D-alanine-D-alanine ligase); conditions: substrate inhibition at high ATP; 10 mM D-Ala, pH 8, 10 mM MgCl2, 100 mM KCl, 30 °C; enzyme co-purified with AMP
[3] = molecular target: T1, BpDdl (Burkholderia pseudomallei D-alanine-D-alanine ligase); experiment: biochemical; remark: listed apart in the source

T1 sequence (Q63QJ9 whole entry, looked up): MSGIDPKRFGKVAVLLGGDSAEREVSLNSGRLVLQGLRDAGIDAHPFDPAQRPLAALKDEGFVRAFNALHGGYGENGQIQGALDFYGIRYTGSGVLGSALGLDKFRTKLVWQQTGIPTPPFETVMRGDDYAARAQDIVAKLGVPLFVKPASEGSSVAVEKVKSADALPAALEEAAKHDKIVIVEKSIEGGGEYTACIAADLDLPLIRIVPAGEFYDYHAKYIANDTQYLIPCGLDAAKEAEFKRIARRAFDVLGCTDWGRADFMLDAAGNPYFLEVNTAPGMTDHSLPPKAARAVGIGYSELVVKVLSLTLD

In the case of `N[C@@H]1CON=C1O` [DCS], the pKi [1] was 4.00.
`Nc1ncnc2c1ncn2[C@@H]1O[C@H](COP(=O)(O)OP(=O)(O)OP(=O)(O)O)[C@@H](O)[C@H]1O` [ATP] was tested, and the “K i,ATP” value [2] was 3.16 ± 0.59 mM.
For `CC(=O)NCc1ccccc1Cl` [compound identified in the fragment screen], the pKi [3] was 2.00.
